The values below come from paper PMC12622164, “Endothelial CYB5R1 is a Coenzyme Q reductase that suppresses ferroptosis and atherosclerosis” (Research Square, 2025).

In the test the target is T1, recombinant CYB5R1 (Δ1–29) (Homo sapiens, UniProt Q9UHQ9).
T1 construct: soluble form lacking first 29 residues (membrane anchor); His6-SUMO (Smt3) fusion cleaved by Ulp1; E. coli SoluBL21
T1 sequence (Q9UHQ9 30-305): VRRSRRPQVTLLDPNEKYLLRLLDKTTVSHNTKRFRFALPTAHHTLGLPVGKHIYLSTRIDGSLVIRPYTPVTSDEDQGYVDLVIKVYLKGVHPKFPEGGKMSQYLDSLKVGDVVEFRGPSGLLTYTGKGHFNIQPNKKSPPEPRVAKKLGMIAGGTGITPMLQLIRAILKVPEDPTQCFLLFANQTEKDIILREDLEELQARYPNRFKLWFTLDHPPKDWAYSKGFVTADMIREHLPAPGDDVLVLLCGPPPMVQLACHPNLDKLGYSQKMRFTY
Briefly: NADH consumption at […] nm. Format: biochemical. Particulars: 200 uM CoQ0; 500 uM NADH; 100 mM Tris-HCl pH 7.4; no CYB5B.

In the case of `COC1=C(OC)C(=O)C(C)=CC1=O` [CoQ0, 2,3-dimethoxy-5-methyl-1,4-benzoquinone], the “NADH consumption at 340 nm” value is on record as “recombinant CYB5R1 readily reduced CoQ0, a water-soluble derivative of CoQ10”.
